Test results from patent US11912686B2 (Gilead Sciences, Inc., priority 2020, dated 2024).

Biological target: human LPAR1 (Homo sapiens (Human), UniProt Q92633)
Assay: LPAR1 intracellular calcium mobilization assay (antagonist mode, FLIPR)
Type: cell-based
Conditions: CHO-K1 EDG2 cells expressing human LPAR1, LPA 18:2 at EC80 (100 nM), test compound 0.5 nM to 10 μM

human LPAR1, sequence (Q92633 whole entry): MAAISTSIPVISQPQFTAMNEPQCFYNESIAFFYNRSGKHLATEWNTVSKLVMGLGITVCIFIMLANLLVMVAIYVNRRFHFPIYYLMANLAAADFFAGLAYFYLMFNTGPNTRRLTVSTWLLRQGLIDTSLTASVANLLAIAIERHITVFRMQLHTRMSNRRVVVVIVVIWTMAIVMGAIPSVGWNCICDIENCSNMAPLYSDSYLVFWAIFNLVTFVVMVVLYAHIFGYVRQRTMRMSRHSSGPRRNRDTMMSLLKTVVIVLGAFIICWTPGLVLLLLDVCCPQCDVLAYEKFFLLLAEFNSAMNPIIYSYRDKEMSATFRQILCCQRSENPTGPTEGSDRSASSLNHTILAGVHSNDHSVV

Structure (SMILES) | EC50 [nM]
C[C@@H](OC(=O)Nc1c(-c2ccc(NC(=O)[C@H]3C[C@@H](C#N)C3)cn2)nnn1C)c1cccnc1Cl [Compound 128, (R)-1-(2-chloropyridin-3-yl)ethyl (4-(5-((1s,3S)-3-cyanocyclobutane-1-carboxamido)pyridin-2-yl)-1-methyl-1H-1,2,3-triazol-5-yl)carbamate] | 309
C[C@@H](OC(=O)Nc1c(-c2ccc(NC(=O)C(C)(C)C#N)cn2)nnn1C)c1cccnc1Cl [Compound 129, (R)-1-(2-chloropyridin-3-yl)ethyl (4-(5-(2-cyano-2-methylpropanamido)pyridin-2-yl)-1-methyl-1H-1,2,3-triazol-5-yl)carbamate] | 492
C[C@@H](OC(=O)Nc1c(-c2ccc(NC(=O)C3CC3C#N)cn2)nnn1C)c1cccnc1Cl (stereo partly drawn) [Compound 130, (R)-1-(2-chloropyridin-3-yl)ethyl (4-(5-(2-cyanocyclopropane-1-carboxamido)pyridin-2-yl)-1-methyl-1H-1,2,3-triazol-5-yl)carbamate] | 271
C[C@@H](OC(=O)Nc1c(-c2ccc(NC(=O)C3(F)CC(F)C3)cn2)nnn1C)c1cccnc1Cl (stereo partly drawn) [Compound 131, (R)-1-(2-chloropyridin-3-yl)ethyl (4-(5-(1,3-difluorocyclobutane-1-carboxamido)pyridin-2-yl)-1-methyl-1H-1,2,3-triazol-5-yl)carbamate] | 260
C[C@@H](OC(=O)Nc1c(-c2ccc(NC(=O)C3(C#N)CC(F)C3)cn2)nnn1C)c1cccnc1Cl (stereo partly drawn) [Compound 132, (R)-1-(2-chloropyridin-3-yl)ethyl (4-(5-(1-cyano-3-fluorocyclobutane-1-carboxamido)pyridin-2-yl)-1-methyl-1H-1,2,3-triazol-5-yl)carbamate] | 197
C[C@@H](OC(=O)Nc1c(-c2ccc(NC(=O)[C@]3(F)C[C@H](O)C3)cn2)nnn1C)c1cccnc1Cl [Compound 133, (R)-1-(2-chloropyridin-3-yl)ethyl (4-(5-((1r,3R)-1-fluoro-3-hydroxycyclobutane-1-carboxamido)pyridin-2-yl)-1-methyl-1H-1,2,3-triazol-5-yl)carbamate] | 344
C[C@@H](OC(=O)Nc1c(-c2ccc(NC(=O)[C@]3(F)C[C@@H](O)C3)cn2)nnn1C)c1cccnc1Cl [Compound 134, (R)-1-(2-chloropyridin-3-yl)ethyl (4-(5-((1s,3S)-1-fluoro-3-hydroxycyclobutane-1-carboxamido)pyridin-2-yl)-1-methyl-1H-1,2,3-triazol-5-yl)carbamate] | 449
C[C@@H](OC(=O)Nc1c(-c2ccc(NC(=O)C3(C#N)CC(O)C3)cn2)nnn1C)c1cccnc1Cl (stereo partly drawn) [Compound 135, (R)-1-(2-chloropyridin-3-yl)ethyl (4-(5-(1-cyano-3-hydroxycyclobutane-1-carboxamido)pyridin-2-yl)-1-methyl-1H-1,2,3-triazol-5-yl)carbamate] | 726
C[C@@H](OC(=O)Nc1c(-c2ccc(NC(=O)C3CC(O)(C(F)(F)F)C3)cn2)nnn1C)c1cccnc1Cl (stereo partly drawn) [Compound 136, (R)-1-(2-chloropyridin-3-yl)ethyl (4-(5-(3-hydroxy-3-(trifluoromethyl)cyclobutane-1-carboxamido)pyridin-2-yl)-1-methyl-1H-1,2,3-triazol-5-yl)carbamate] | 602
C[C@@H](OC(=O)Nc1c(-c2ccc(NC(=O)[C@@H]3C[C@@H]3C#N)cn2)nnn1C)c1cccnc1Cl [Compound 137, (R)-1-(2-chloropyridin-3-yl)ethyl (4-(5-((1R,2S)-2-cyanocyclopropane-1-carboxamido)pyridin-2-yl)-1-methyl-1H-1,2,3-triazol-5-yl)carbamate] | 1090
CO[C@]1(C#N)C[C@H](C(=O)Nc2ccc(-c3nnn(C)c3NC(=O)O[C@H](C)c3cccnc3Cl)nc2)C1 [Compound 138, (R)-1-(2-chloropyridin-3-yl)ethyl (4-(5-((1s,3S)-3-cyano-3-methoxycyclobutane-1-carboxamido)pyridin-2-yl)-1-methyl-1H-1,2,3-triazol-5-yl)carbamate] | 84.9
C[C@@H](OC(=O)Nc1c(-c2ccc(NC(=O)[C@H]3C[C@](O)(C#N)C3)cn2)nnn1C)c1cccnc1Cl [Compound 140, (R)-1-(2-chloropyridin-3-yl)ethyl (4-(5-((1s,3S)-3-cyano-3-hydroxycyclobutane-1-carboxamido)pyridin-2-yl)-1-methyl-1H-1,2,3-triazol-5-yl)carbamate] | 349
C[C@@H](OC(=O)Nc1c(-c2ccc(NC(=O)C3(C#N)CC(=O)C3)cn2)nnn1C)c1cccnc1Cl [Compound 141, (R)-1-(2-chloropyridin-3-yl)ethyl (4-(5-(1-cyano-3-oxocyclobutane-1-carboxamido)pyridin-2-yl)-1-methyl-1H-1,2,3-triazol-5-yl)carbamate] | 459
C[C@@H](OC(=O)Nc1c(-c2ccc(NC(=O)C3CCC3C#N)cn2)nnn1C)c1cccnc1Cl (stereo partly drawn) [Compound 142, (R)-1-(2-chloropyridin-3-yl)ethyl (4-(5-(2-cyanocyclobutane-1-carboxamido)pyridin-2-yl)-1-methyl-1H-1,2,3-triazol-5-yl)carbamate] | 217
CC(C#N)C(=O)Nc1ccc(-c2nnn(C)c2NC(=O)O[C@H](C)c2cccnc2Cl)nc1 (stereo partly drawn) [Compound 143, (R)-1-(2-chloropyridin-3-yl)ethyl (4-(5-(2-cyanopropanamido)pyridin-2-yl)-1-methyl-1H-1,2,3-triazol-5-yl)carbamate] | 189
C[C@@H](OC(=O)Nc1c(-c2ccc(NC(=O)C3(C)CC(F)(F)C3)cn2)nnn1C)c1cccnc1Cl [Compound 144, (R)-1-(2-chloropyridin-3-yl)ethyl (4-(5-(3,3-difluoro-1-methylcyclobutane-1-carboxamido)pyridin-2-yl)-1-methyl-1H-1,2,3-triazol-5-yl)carbamate] | 36.1
C[C@@H](OC(=O)Nc1c(-c2ccc(NC(=O)C3(C#N)C(C#N)C3(C)C)cn2)nnn1C)c1cccnc1Cl (stereo partly drawn) [Compound 145, (R)-1-(2-chloropyridin-3-yl)ethyl (4-(5-(1,3-dicyano-2,2-dimethylcyclopropane-1-carboxamido)pyridin-2-yl)-1-methyl-1H-1,2,3-triazol-5-yl)carbamate] | 184
C[C@@H](OC(=O)Nc1c(-c2ccc(NC(=O)C3(C#N)CC3(C)C)cn2)nnn1C)c1cccnc1Cl (stereo partly drawn) [Compound 146, (R)-1-(2-chloropyridin-3-yl)ethyl (4-(5-(1-cyano-2,2-dimethylcyclopropane-1-carboxamido)pyridin-2-yl)-1-methyl-1H-1,2,3-triazol-5-yl)carbamate] | 271
C[C@@H](OC(=O)Nc1c(-c2ccc(NC(=O)C3(C#N)CC3C(F)(F)F)cn2)nnn1C)c1cccnc1Cl (stereo partly drawn) [Compound 147, (R)-1-(2-chloropyridin-3-yl)ethyl (4-(5-(1-cyano-2-(trifluoromethyl)cyclopropane-1-carboxamido)pyridin-2-yl)-1-methyl-1H-1,2,3-triazol-5-yl)carbamate] | 33.9
CC1CC1(C#N)C(=O)Nc1ccc(-c2nnn(C)c2NC(=O)O[C@H](C)c2cccnc2Cl)nc1 (stereo partly drawn) [Compound 148, (R)-1-(2-chloropyridin-3-yl)ethyl (4-(5-(1-cyano-2-methylcyclopropane-1-carboxamido)pyridin-2-yl)-1-methyl-1H-1,2,3-triazol-5-yl)carbamate] | 30.4
C[C@@H](OC(=O)Nc1c(-c2ccc(NC(=O)C3CC34CC4)cn2)nnn1C)c1cccnc1Cl (stereo partly drawn) [Compound 149, (R)-1-(2-chloropyridin-3-yl)ethyl (1-methyl-4-(5-(spiro[2.2]pentane-1-carboxamido)pyridin-2-yl)-1H-1,2,3-triazol-5-yl)carbamate] | 329
C[C@@H](OC(=O)Nc1c(-c2ccc(NC(=O)[C@@H]3CNC(=O)C3)cn2)nnn1C)c1cccnc1Cl [Compound 150, (R)-1-(2-chloropyridin-3-yl)ethyl (1-methyl-4-(5-((S)-5-oxopyrrolidine-3-carboxamido)pyridin-2-yl)-1H-1,2,3-triazol-5-yl)carbamate] | 880
C[C@@H](OC(=O)Nc1c(-c2ccc(NC(=O)[C@@H]3CCC(=O)N3)cn2)nnn1C)c1cccnc1Cl [Compound 151, (R)-1-(2-chloropyridin-3-yl)ethyl (1-methyl-4-(5-((S)-5-oxopyrrolidine-2-carboxamido)pyridin-2-yl)-1H-1,2,3-triazol-5-yl)carbamate] | 3150
C[C@@H](OC(=O)Nc1c(-c2ccc(NC(=O)[C@H]3CCC(=O)N3)cn2)nnn1C)c1cccnc1Cl [Compound 152, (R)-1-(2-chloropyridin-3-yl)ethyl (1-methyl-4-(5-((R)-5-oxopyrrolidine-2-carboxamido)pyridin-2-yl)-1H-1,2,3-triazol-5-yl)carbamate] | 3990
C[C@@H](OC(=O)Nc1c(-c2ccc(NC(=O)C3OCCO3)cn2)nnn1C)c1cccnc1Cl [Compound 153, (R)-1-(2-chloropyridin-3-yl)ethyl (4-(5-(1,3-dioxolane-2-carboxamido)pyridin-2-yl)-1-methyl-1H-1,2,3-triazol-5-yl)carbamate] | 933
C[C@@H](OC(=O)Nc1c(-c2ccc(NC(=O)[C@H]3C[C@H](O)C3)cn2)nnn1C)c1cccnc1Cl [Compound 154, (R)-1-(2-chloropyridin-3-yl)ethyl (4-(5-((1r,3R)-3-hydroxycyclobutane-1-carboxamido)pyridin-2-yl)-1-methyl-1H-1,2,3-triazol-5-yl)carbamate] | 668
C[C@@H](OC(=O)Nc1c(-c2ccc(NC(=O)[C@H]3C[C@@H](O)C3)cn2)nnn1C)c1cccnc1Cl [Compound 155, (R)-1-(2-chloropyridin-3-yl)ethyl (4-(5-((1s,3S)-3-hydroxycyclobutane-1-carboxamido)pyridin-2-yl)-1-methyl-1H-1,2,3-triazol-5-yl)carbamate] | 748
CO[C@H]1C[C@H](C(=O)Nc2ccc(-c3nnn(C)c3NC(=O)O[C@H](C)c3cccnc3Cl)nc2)C1 [Compound 156, (R)-1-(2-chloropyridin-3-yl)ethyl (4-(5-((1r,3R)-3-methoxycyclobutane-1-carboxamido)pyridin-2-yl)-1-methyl-1H-1,2,3-triazol-5-yl)carbamate] | 50.7
